According to PubChem BioAssay AID248 (DTP/NCI, 2004):
Values joined by “and” are separate entries in the source; they are usually repeats but may differ in a detail not shown here. Identical values can stand only once. Inconclusive results and toxic doses are left out. No stated cut-off is given here; in the data, active means T/C of 150% or more; inactive means T/C below 125%.

System: L1210 leukemia ip in BDF1 mice, survival T/C
Assay: NCI In Vivo Anticancer Drug Screen. Data for tumor model L1210 Leukemia (intraperitoneal) in B6D2F1 (BDF1) mice
Conditions: endpoint: mean survival time, higher = longer survival
In short: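 Ratio derived from survival: compound-dosed mice over vehicle-dosed mice, all bearing a transplantable tumor.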

[1] = dose: 100.0 mg/kg/injection, schedule: Q04DX003 (ip), vehicle: Klucel (hydroxypropylcellulose) (HPC)
[2] = dose: 100.0 mg/kg/injection, schedule: Q04DX003 (ip), vehicle: saline
[3] = dose: 200.0 mg/kg/injection, schedule: Q04DX003 (ip), vehicle: Klucel (hydroxypropylcellulose) (HPC)
[4] = dose: 200.0 mg/kg/injection, schedule: Q04DX003 (ip), vehicle: saline
[5] = dose: 400.0 mg/kg/injection, schedule: Q04DX003 (ip), vehicle: Klucel (hydroxypropylcellulose) (HPC)
[6] = dose: 100.0 mg/kg/injection, schedule: Q01DX001 (ip), vehicle: saline
[7] = dose: 200.0 mg/kg/injection, schedule: Q01DX001 (ip), vehicle: saline
[8] = dose: 400.0 mg/kg/injection, schedule: Q01DX001 (ip), vehicle: saline

Measured: T/C

O=C1OC(=O)C2C3C=CC(CC3)C12 (centres undefined)
inactive: [1] 96 % of control | [2] 98 % of control | [3] 100 % of control | [4] 98 % of control

Cc1ccc(C)c(NC(=O)Oc2ccc(Cl)c(C)c2)c1
inactive: dose: 100.0 mg/kg/injection, schedule: Q04DX002 (ip), vehicle: Klucel (hydroxypropylcellulose) (HPC) 102 % of control | dose: 200.0 mg/kg/injection, schedule: Q04DX002 (ip), vehicle: Klucel (hydroxypropylcellulose) (HPC) 105 % of control | dose: 400.0 mg/kg/injection, schedule: Q04DX002 (ip), vehicle: Klucel (hydroxypropylcellulose) (HPC) 108 % of control

O=S(=O)(c1ccccc1)N1CCCCC1
inactive: [1] 100 % of control | [3] 97 % of control | [5] 100 % of control

C[S+](C)Cc1ccccc1
inactive: dose: 50.0 mg/kg/injection, schedule: Q04DX003 (ip), vehicle: saline 96 % of control | dose: 100.0 mg/kg/injection, schedule: Q01DX009 (ip), vehicle: other 93 % of control | [2] 100 % of control

CCCCCCCCCC(=O)OCCN1CCN(CCCN2c3ccccc3Sc3ccc(C(F)(F)F)cc32)CC1
inactive: dose: 1.56 mg/kg/injection, schedule: Q01DX009 (ip), vehicle: alcohol 107 % of control | dose: 25.0 mg/kg/injection, schedule: Q04DX003 (ip), vehicle: saline with Tween-80 106 % of control

Cc1cc(=O)[nH]c(Nc2ccccc2)n1
inactive: dose: 100.0 mg/kg/injection, schedule: Q01DX009 (ip), vehicle: saline with Tween-80 90 % of control | dose: 200.0 mg/kg/injection, schedule: Q01DX009 (ip), vehicle: saline with Tween-80 93 % of control | dose: 400.0 mg/kg/injection, schedule: Q01DX009 (ip), vehicle: saline with Tween-80 90 % of control

CNc1ccccc1C(=O)NNS(=O)(=O)c1ccc(C)cc1
inactive: [6] 102 % of control | [7] 102 % of control | [8] 90 % of control

c1ccc(SCc2cccnc2)nc1
inactive: [6] 97 % of control | [7] 88 % of control | [8] 94 % of control

CC(=O)NC1CCCCCCC1
inactive: dose: 100.0 mg/kg/injection, schedule: Q01DX005 (ip), vehicle: saline 103 % of control | dose: 100.0 mg/kg/injection, schedule: Q01DX009 (ip), vehicle: saline 108 % of control | dose: 100.0 mg/kg/injection, schedule: Q04DX002 (ip), vehicle: saline 100 % of control | dose: 200.0 mg/kg/injection, schedule: Q01DX005 (ip), vehicle: saline 109 % of control | dose: 200.0 mg/kg/injection, schedule: Q01DX009 (ip), vehicle: saline 102 % of control | dose: 200.0 mg/kg/injection, schedule: Q04DX002 (ip), vehicle: saline 110 % of control | dose: 400.0 mg/kg/injection, schedule: Q01DX005 (ip), vehicle: saline 109 % of control | dose: 400.0 mg/kg/injection, schedule: Q01DX009 (ip), vehicle: saline 115 % of control | dose: 400.0 mg/kg/injection, schedule: Q04DX002 (ip), vehicle: saline 100 % of control

CCCCCCSc1ccccn1
inactive: [2] 101 % of control | [4] 107 % of control | dose: 400.0 mg/kg/injection, schedule: Q04DX003 (ip), vehicle: saline 96 % of control

Cc1cc(C)c(NC(=O)Nc2cccc3ccccc23)c(C)c1
inactive: dose: 25.0 mg/kg/injection, schedule: Q01DX009 (ip), vehicle: Klucel (hydroxypropylcellulose) (HPC) 95 % of control | dose: 50.0 mg/kg/injection, schedule: Q01DX009 (ip), vehicle: Klucel (hydroxypropylcellulose) (HPC) 96 % of control | dose: 100.0 mg/kg/injection, schedule: Q01DX009 (ip), vehicle: Klucel (hydroxypropylcellulose) (HPC) 96 % of control and 103 % of control | [1] 96 % of control | dose: 200.0 mg/kg/injection, schedule: Q01DX009 (ip), vehicle: Klucel (hydroxypropylcellulose) (HPC) 92 % of control | [3] 93 % of control | dose: 400.0 mg/kg/injection, schedule: Q01DX009 (ip), vehicle: Klucel (hydroxypropylcellulose) (HPC) 91 % of control | [5] 96 % of control
